Columns and labels:
[1] = target: T1, Interleukin-1 receptor-associated kinase 4 (Homo sapiens, UniProt Q9NWZ3); assay: Inhibition of IRAK4
T1 sequence (Q9NWZ3 whole entry): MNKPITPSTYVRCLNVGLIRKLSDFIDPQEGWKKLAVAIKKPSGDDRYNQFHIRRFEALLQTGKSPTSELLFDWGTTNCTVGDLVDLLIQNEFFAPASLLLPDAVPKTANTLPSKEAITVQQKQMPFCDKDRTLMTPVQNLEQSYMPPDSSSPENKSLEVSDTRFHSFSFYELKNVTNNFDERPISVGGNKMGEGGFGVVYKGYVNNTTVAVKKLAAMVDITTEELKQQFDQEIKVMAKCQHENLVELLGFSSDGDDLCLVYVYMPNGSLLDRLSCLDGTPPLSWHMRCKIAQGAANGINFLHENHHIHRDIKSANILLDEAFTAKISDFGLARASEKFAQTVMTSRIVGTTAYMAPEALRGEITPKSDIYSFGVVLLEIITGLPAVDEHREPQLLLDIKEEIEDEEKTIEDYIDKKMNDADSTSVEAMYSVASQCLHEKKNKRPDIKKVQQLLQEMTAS

[2] = Intrinsic clearance in human microsomes at 0.5 uM; type: ADME, Microsome
[3] = target: Interleukin-1 receptor-associated kinase 1 (Homo sapiens, UniProt P51617); assay: Inhibition of IRAK1
PBMC = assay: Inhibition of LPS-induced TNFalpha release in human PBMC cells; type: functional
Cytochrome P450 3A4 = Cytochrome P450 3A4 (Homo sapiens, UniProt P08684); assay: Inhibition of CYP3A4; type: ADME; set-up: concentration or dose not given beside the values
Cytochrome P450 2D6 = Cytochrome P450 2D6 (Homo sapiens, UniProt P10635); assay: Inhibition of CYP2D6; type: ADME
[4] = Intrinsic clearance in rat microsomes at 0.5 uM; type: ADME, Microsome
[5] = target: T2, Interleukin-1 receptor-associated kinase 4 (Homo sapiens) (UniProt Q9NWZ3); assay: Inhibition of IRAK4 at 10 uM
T2 sequence (whole entry): T1 sequence (Q9NWZ3 whole entry)

CYP2D6 [6] = target: T3, CYP2D6 (Homo sapiens, UniProt P10635); assay: Inhibition of CYP2D6 at 10 uM; type: ADME
CYP2D6 [7] = target: T3, CYP2D6; assay: Inhibition of CYP2D6 at 50 uM; type: ADME

Chain of Cytochrome P450 3A4 (P08684 whole entry): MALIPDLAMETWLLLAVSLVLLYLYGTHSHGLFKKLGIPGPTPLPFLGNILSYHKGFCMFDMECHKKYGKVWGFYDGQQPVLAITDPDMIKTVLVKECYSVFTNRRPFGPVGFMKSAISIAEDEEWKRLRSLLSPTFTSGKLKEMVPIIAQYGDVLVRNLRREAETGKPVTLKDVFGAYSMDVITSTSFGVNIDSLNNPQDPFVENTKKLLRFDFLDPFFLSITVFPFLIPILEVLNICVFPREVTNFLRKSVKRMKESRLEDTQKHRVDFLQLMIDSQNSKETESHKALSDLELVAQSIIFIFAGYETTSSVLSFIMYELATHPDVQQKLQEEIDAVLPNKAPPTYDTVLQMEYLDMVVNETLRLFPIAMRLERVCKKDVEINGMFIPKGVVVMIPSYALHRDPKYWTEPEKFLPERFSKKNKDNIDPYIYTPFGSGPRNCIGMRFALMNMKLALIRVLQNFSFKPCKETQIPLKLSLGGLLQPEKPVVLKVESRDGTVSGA
Chain of Interleukin-1 receptor-associated kinase 1 (P51617 whole entry): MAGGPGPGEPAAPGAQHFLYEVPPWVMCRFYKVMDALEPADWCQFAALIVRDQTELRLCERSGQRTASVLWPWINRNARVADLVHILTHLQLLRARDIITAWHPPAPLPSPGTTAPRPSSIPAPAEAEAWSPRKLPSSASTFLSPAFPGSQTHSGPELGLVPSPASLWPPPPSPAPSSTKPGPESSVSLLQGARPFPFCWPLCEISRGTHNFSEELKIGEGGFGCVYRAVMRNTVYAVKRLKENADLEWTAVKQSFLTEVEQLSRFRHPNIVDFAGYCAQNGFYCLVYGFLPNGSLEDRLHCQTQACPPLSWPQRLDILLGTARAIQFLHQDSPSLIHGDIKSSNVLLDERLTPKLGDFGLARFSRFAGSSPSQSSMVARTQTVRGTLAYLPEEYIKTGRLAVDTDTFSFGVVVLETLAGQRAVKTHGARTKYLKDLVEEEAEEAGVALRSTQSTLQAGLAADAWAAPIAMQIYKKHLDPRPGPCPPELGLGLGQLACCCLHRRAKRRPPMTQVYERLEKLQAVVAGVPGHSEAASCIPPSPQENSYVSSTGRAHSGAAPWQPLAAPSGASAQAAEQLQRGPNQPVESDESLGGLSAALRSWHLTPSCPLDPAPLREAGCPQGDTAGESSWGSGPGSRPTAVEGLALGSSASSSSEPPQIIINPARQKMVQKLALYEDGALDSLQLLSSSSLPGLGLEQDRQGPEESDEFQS
Chain of Cytochrome P450 2D6 (P10635 whole entry): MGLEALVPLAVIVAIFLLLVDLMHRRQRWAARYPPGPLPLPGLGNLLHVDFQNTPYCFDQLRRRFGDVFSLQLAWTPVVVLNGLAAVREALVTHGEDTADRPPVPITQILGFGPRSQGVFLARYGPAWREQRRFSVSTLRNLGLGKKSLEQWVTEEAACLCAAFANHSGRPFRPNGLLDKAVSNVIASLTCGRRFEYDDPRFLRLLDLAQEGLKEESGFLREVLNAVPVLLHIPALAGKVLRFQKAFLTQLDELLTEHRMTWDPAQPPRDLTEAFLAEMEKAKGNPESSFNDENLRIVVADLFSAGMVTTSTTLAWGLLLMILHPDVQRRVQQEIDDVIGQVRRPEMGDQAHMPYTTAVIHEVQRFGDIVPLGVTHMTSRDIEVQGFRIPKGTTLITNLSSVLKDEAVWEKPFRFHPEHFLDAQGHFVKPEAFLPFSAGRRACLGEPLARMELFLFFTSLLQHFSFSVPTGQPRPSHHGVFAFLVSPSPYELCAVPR
T3 sequence (P10635 whole entry): as above

| Compound | IC50 [1] [nM] | other results |
| --- | --- | --- |
| Cc1ccc2ncn(-c3cccc(NC4CCNCC4)n3)c2c1 | 10 |  |
| NC(=O)c1ccc2ncc(-c3cccc(NC4CCNCC4)n3)n2c1 | 5 |  |
| Clc1ccc2ncc(-c3cccc(NC4CCCNC4)n3)n2c1 (racemic) |  | microsomal CLint at 0.5 µM [2]: 29.5 µL/min/mg; IC50 [3]: 175000 nM; Activity (PBMC): 65 nM; Inhibition (Cytochrome P450 3A4): 8.6%; Inhibition (Cytochrome P450 2D6): 1.8%; microsomal CLint at 0.5 µM [4]: 78.1 µL/min/mg |
| Clc1cc2ncn(-c3cccc(NC4CCNCC4)n3)c2cc1Cl | 166 |  |
| COc1ccc2ncn(-c3cccc(NC4CCNCC4)n3)c2c1 | 15 |  |
| N#Cc1ccc(Nc2cccc(-c3cnc4ccccn34)n2)cc1 |  | inhibition [5]: 12% |
| Clc1ccc2ncc(-c3cccc(NC4CCNC4)n3)n2c1 (racemic) | 1 | microsomal CLint at 0.5 µM [2]: 19.2 µL/min/mg; IC50 [3]: 23000 nM; Activity (PBMC): 16 nM; Inhibition (Cytochrome P450 3A4): 12%; Inhibition (Cytochrome P450 2D6): 15%; microsomal CLint at 0.5 µM [4]: 49.3 µL/min/mg |
| Cc1ccc2c(c1)ncn2-c1cccc(NC2CCNCC2)n1 | 1080 |  |
| Clc1ccc2ncn(-c3cccc(NC4CCNCC4)n3)c2c1 | 3 |  |
| Clc1ccc2ncc(-c3cccc(NC4CNC4)n3)n2c1 | 6 | microsomal CLint at 0.5 µM [2]: 13 µL/min/mg; IC50 [3]: 195000 nM; inhibition at 10 µM (CYP2D6 [6]): 21%; Activity (PBMC): 54 nM; Inhibition (Cytochrome P450 3A4): 11% |
| COc1ccc2c(c1)ncn2-c1cccc(NC2CCNCC2)n1 | 208 |  |
| COc1ccc2ncc(-c3cccc(NC4CCNCC4)n3)n2c1 | 6 | microsomal CLint at 0.5 µM [2]: 19.5 µL/min/mg; IC50 [3]: 293000 nM; Activity (PBMC): 220 nM; Inhibition (Cytochrome P450 3A4): 31%; inhibition at 50 µM (CYP2D6 [7]): 41%; microsomal CLint at 0.5 µM [4]: 5.3 µL/min/mg |
| COc1cc2ncn(-c3cccc(NC4CCNCC4)n3)c2cc1OC | 181 |  |
| O=C(c1ccc2ncc(-c3cccc(NC4CCNCC4)n3)n2c1)N1CCOCC1 | 263 |  |
| Clc1ccc2c(c1)ncn2-c1cccc(NC2CCNCC2)n1 | 112 |  |
| CN(C)C(=O)c1ccc2ncc(-c3cccc(NC4CCNCC4)n3)n2c1 | 49 |  |
| N#Cc1ccc2ncc(-c3cccc(NC4CCNCC4)n3)n2c1 | 4 | microsomal CLint at 0.5 µM [2]: 8.3 µL/min/mg; IC50 [3]: 96000 nM; Activity (PBMC): 200 nM; Inhibition (Cytochrome P450 3A4): 22%; Inhibition (Cytochrome P450 2D6): 42%; microsomal CLint at 0.5 µM [4]: 39.9 µL/min/mg |
| c1cc(NC2C[C@H]3CC[C@@H](C2)N3)nc(-c2cnc3ccccn23)c1 (stereo partly drawn) | 225 |  |
| c1cc(-c2cnc3ccccn23)nc(N2C[C@H]3C[C@@H]2CN3)c1 | 126 |  |

Further lines, with some results ahead:

| IC50 [1] [nM] | Compound | other results |
| --- | --- | --- |
| 2 | c1cc(NC2CCNCC2)nc(-c2cnc3ccc(-c4cc[nH]n4)cn23)c1 |  |
| 433 | N#Cc1ccccc1Nc1cccc(-c2cnc3ccccn23)n1 |  |
| 7 | COc1ccc2ncc(-c3cccc(NC4CNC4)n3)n2c1 |  |
| 39 | c1cc(NC2CNC2)nc(-c2cnc3ccccn23)c1 |  |
| 313 | c1cc(NCC2CCCN2)nc(-c2cnc3ccccn23)c1 (racemic) |  |
| 497 | Cn1cnc(CNc2cccc(-c3cnc4ccccn34)n2)c1 |  |
| 7 | Cn1cc(-c2ccc3ncc(-c4cccc(NC5CCNCC5)n4)n3c2)cn1 |  |
| 19 | c1cc(N[C@H]2CCCNC2)nc(-c2cnc3ccccn23)c1 |  |
| 1880 | NC1CCN(c2cccc(-c3cnc4ccccn34)n2)CC1 |  |
| 8 | COc1ccc(-c2ccc3ncc(-c4cccc(NC5CCNCC5)n4)n3c2)cn1 |  |
| 3030 | c1cc(NCC2CCNCC2)nc(-c2cnc3ccccn23)c1 |  |
| 1300 | NCCCNc1cccc(-c2cnc3ccccn23)n1 |  |
| 487 | c1cc(-c2cnc3ccccn23)nc(N2CCCNCC2)c1 |  |
| 545 | c1cc(NC2CCNC2)nc(-c2cnc3ccccn23)c1 (racemic) |  |
| 8100 | CN(C)CCCNc1cccc(-c2cnc3ccccn23)n1 |  |
| 1130 | Cn1nccc1Nc1cccc(-c2cnc3ccccn23)n1 |  |
| 95 | N#Cc1ccc2ncc(-c3cccc(N[C@@H]4CCCNC4)n3)n2c1 |  |
| 1160 | c1ccc(Nc2cccc(-c3cnc4ccccn34)n2)cc1 |  |
| 914 | CN1[C@@H]2CC[C@H]1CC(Nc1cccc(-c3cnc4ccccn34)n1)C2 (stereo partly drawn) |  |
| 535 | NC1CCCN(c2cccc(-c3cnc4ccccn34)n2)C1 (racemic) |  |
| 63 | c1cc(NC2CCNCC2)nc(-c2cnc3ccc(-c4ccc[nH]4)cn23)c1 |  |

— ChEMBL document CHEMBL1145577, “IRAK-4 inhibitors. Part III: a series of imidazo[1,2-a]pyridines” (Bioorg Med Chem Lett, 2008)
